Test results reported in the NIST ThermoML archive (doi:10.1021/je200721d).

Experiment: xn = mol fraction of the nth substance listed
Conditions: Liquid, Vibrating tube method

CCCCCCCC [octane] + CCCCCC
Conditions	mass density [kg/m3]
333.01 K, 7000 kPa, x2 = 0.9308	636.74
333.01 K, 8000 kPa, x2 = 0.9308	638.01
333.01 K, 9000 kPa, x2 = 0.9308	639.26
333.01 K, 10000 kPa, x2 = 0.9308	640.48
333.01 K, 11000 kPa, x2 = 0.9308	641.7
333.01 K, 12000 kPa, x2 = 0.9308	642.89
333.01 K, 13000 kPa, x2 = 0.9308	644.06
333.01 K, 14000 kPa, x2 = 0.9308	645.22
333.01 K, 15000 kPa, x2 = 0.9308	646.35
333.01 K, 16000 kPa, x2 = 0.9308	647.46
333.01 K, 17000 kPa, x2 = 0.9308	648.54
333.01 K, 18000 kPa, x2 = 0.9308	649.61
333.01 K, 19000 kPa, x2 = 0.9308	650.63
333.01 K, 20000 kPa, x2 = 0.9308	651.64
333.01 K, 21000 kPa, x2 = 0.9308	652.62
333.01 K, 22000 kPa, x2 = 0.9308	653.55
333.01 K, 23000 kPa, x2 = 0.9308	654.5
333.01 K, 24000 kPa, x2 = 0.9308	655.39
333.01 K, 25000 kPa, x2 = 0.9308	656.28
333.02 K, 1000 kPa, x2 = 0.1654	665.79
333.02 K, 1000 kPa, x2 = 0.7995	637.16
333.02 K, 2000 kPa, x2 = 0.1654	666.85
333.02 K, 2000 kPa, x2 = 0.7995	638.39
333.02 K, 3000 kPa, x2 = 0.1654	667.91
333.02 K, 3000 kPa, x2 = 0.7995	639.63
333.02 K, 4000 kPa, x2 = 0.1654	668.97
333.02 K, 4000 kPa, x2 = 0.7995	640.91
333.02 K, 5000 kPa, x2 = 0.1654	670.04
333.02 K, 5000 kPa, x2 = 0.7995	642.14
333.02 K, 6000 kPa, x2 = 0.1654	671.11
333.02 K, 6000 kPa, x2 = 0.7995	643.37
333.02 K, 7000 kPa, x2 = 0.1654	672.17
333.02 K, 7000 kPa, x2 = 0.7995	644.6
333.02 K, 8000 kPa, x2 = 0.1654	673.21
333.02 K, 8000 kPa, x2 = 0.7995	645.81
333.02 K, 9000 kPa, x2 = 0.1654	674.28
333.02 K, 9000 kPa, x2 = 0.7995	647.01
333.02 K, 10000 kPa, x2 = 0.1654	675.32
333.02 K, 10000 kPa, x2 = 0.7995	648.19
333.02 K, 11000 kPa, x2 = 0.1654	676.36
333.02 K, 11000 kPa, x2 = 0.7995	649.36
333.02 K, 12000 kPa, x2 = 0.1654	677.38
333.02 K, 12000 kPa, x2 = 0.7995	650.5
333.02 K, 13000 kPa, x2 = 0.1654	678.38
333.02 K, 13000 kPa, x2 = 0.7995	651.63
333.02 K, 14000 kPa, x2 = 0.1654	679.38
333.02 K, 14000 kPa, x2 = 0.7995	652.74
333.02 K, 15000 kPa, x2 = 0.1654	680.34
333.02 K, 15000 kPa, x2 = 0.7995	653.84
333.02 K, 16000 kPa, x2 = 0.1654	681.29
333.02 K, 16000 kPa, x2 = 0.7995	654.91
333.02 K, 17000 kPa, x2 = 0.1654	682.26
333.02 K, 17000 kPa, x2 = 0.7995	655.95
333.02 K, 18000 kPa, x2 = 0.1654	683.15
333.02 K, 18000 kPa, x2 = 0.7995	656.97
333.02 K, 19000 kPa, x2 = 0.1654	684.04
333.02 K, 19000 kPa, x2 = 0.7995	657.98
333.02 K, 20000 kPa, x2 = 0.1654	684.93
333.02 K, 20000 kPa, x2 = 0.7995	658.95
333.02 K, 21000 kPa, x2 = 0.1654	685.79
333.02 K, 21000 kPa, x2 = 0.7995	659.91
333.02 K, 22000 kPa, x2 = 0.1654	686.62
333.02 K, 22000 kPa, x2 = 0.7995	660.83
333.02 K, 23000 kPa, x2 = 0.1654	687.45
333.02 K, 23000 kPa, x2 = 0.7995	661.72
333.02 K, 24000 kPa, x2 = 0.1654	688.25
333.02 K, 24000 kPa, x2 = 0.7995	662.6
333.02 K, 25000 kPa, x2 = 0.1654	689.01
333.02 K, 25000 kPa, x2 = 0.7995	663.44
333.04 K, 1000 kPa, x2 = 0.2199	663.81
333.04 K, 2000 kPa, x2 = 0.2199	664.87
333.04 K, 3000 kPa, x2 = 0.2199	665.96
333.04 K, 4000 kPa, x2 = 0.2199	667.04
333.04 K, 5000 kPa, x2 = 0.2199	668.13
333.04 K, 6000 kPa, x2 = 0.2199	669.19
333.04 K, 7000 kPa, x2 = 0.2199	670.26
333.04 K, 8000 kPa, x2 = 0.2199	671.36
333.04 K, 9000 kPa, x2 = 0.2199	672.39
333.04 K, 10000 kPa, x2 = 0.2199	673.44
333.04 K, 11000 kPa, x2 = 0.2199	674.49
333.04 K, 12000 kPa, x2 = 0.2199	675.5
333.04 K, 13000 kPa, x2 = 0.2199	676.53
333.04 K, 14000 kPa, x2 = 0.2199	677.53
333.04 K, 15000 kPa, x2 = 0.2199	678.51
333.04 K, 16000 kPa, x2 = 0.2199	679.46
333.04 K, 17000 kPa, x2 = 0.2199	680.4
333.04 K, 18000 kPa, x2 = 0.2199	681.32
333.04 K, 19000 kPa, x2 = 0.2199	682.23
333.04 K, 20000 kPa, x2 = 0.2199	683.09
333.04 K, 21000 kPa, x2 = 0.2199	683.96
333.04 K, 22000 kPa, x2 = 0.2199	684.8
333.04 K, 23000 kPa, x2 = 0.2199	685.61
333.04 K, 24000 kPa, x2 = 0.2199	686.43
333.04 K, 25000 kPa, x2 = 0.2199	687.22
